Measurements reported in patent publication US8937091B2 (Japan Science and Technology Agency, priority 2009, dated 2015).

Key:
[1] = tested on: SOCE (store operated calcium entry) in CHO cells; experiment: Assay of SOCE (store operated calcium entry)-inhibiting action; assay type: cell-based, Chinese hamster; details: CHO cells, thapsigargin; for inhibition at 10 µM / inhibition at 30 µM / inhibition at 100 µM: Cricetulus griseus, CHO, read-out: SOCE level (percentage of inhibition)
Method: The extracellular fluid (i.e., medium) of cultured Chinese hamster ovary (CHO) cells was replaced by BSS containing no calcium. One minute later, a test compound was added. Two minutes later, 1 μM thapsigargin was added to cause depletion of the intracellular calcium store. Nine minutes later, calcium chloride (final concentration: 2 mM) was added to the extracellular fluid. The SOCE-inhibiting action levels at different compound concentrations after the addition of calcium chloride were determined as the percentage of inhibition (%) by evaluating the influence of the compound on the degree of increase in the intracellular calcium concentration.
(§1) Hereafter, the numerals in parentheses written after the TG level, the SOCE level, and the IICR level correspond to the test compound concentrations. The number following the name of each title compound used in the Examples below represents a compound ID number designated arbitrarily by the present inventors.

[2] = tested on: IICR (IP3 induced calcium release) in CHO cells; experiment: Assay of IICR (IP3 induced calcium release)-inhibiting action; assay type: cell-based, Chinese hamster; details: CHO cells, 10 μM ATP; for inhibition at 10 µM / inhibition at 30 µM / inhibition at 100 µM: Cricetulus griseus, CHO, read-out: IICR level (percentage of inhibition)
Method: The extracellular fluid (i.e., medium) of cultured CHO cells was replaced by BSS containing calcium. One minute later, a test compound was added. Two minutes later, 10 μM ATP was added. The IICR-inhibiting action levels at different compound concentrations after the addition of ATP were determined as the percentage of inhibition (%) by evaluating the influence of the compound on the degree of increase in the intracellular calcium concentration.
as §1

SMILES | inhibition at 10 µM ([1]; test compound 10 μmol) [%] | inhibition at 30 µM ([1]; test compound 30 μmol) [%] | inhibition at 100 µM ([1]; test compound 100 μmol) [%] | inhibition at 10 µM ([2]; test compound 10 μmol) [%] | inhibition at 30 µM ([2]; test compound 30 μmol) [%] | inhibition at 100 µM ([2]; test compound 100 μmol) [%] | SOCE level (percentage of inhibition) ([1]; test compound 10 μmol) [%] | SOCE level (percentage of inhibition) ([1]; test compound 30 μmol) [%] | SOCE level (percentage of inhibition) ([1]; test compound 100 μmol) [%] | IICR level (percentage of inhibition) ([2]; test compound 10 μmol) [%] | IICR level (percentage of inhibition) ([2]; test compound 30 μmol) [%] | IICR level (percentage of inhibition) ([2]; test compound 100 μmol) [%]
CCCCN(CCC(=O)c1ccc(Cl)s1)Cc1ccccc1 [Example 374, 2-(N-butyl-N-benzyl)aminoethyl-5-chloro-2-thienylketone] | 0 | 0 | 53 | 0 | 8 | 0 | – | – | – | – | – | –
CC(C)N(CCC(=O)c1ccc2c(Cl)cccc2c1)Cc1ccccc1 [Example 84, 2-(N-isopropylbenzyl)aminoethyl-5-chloro-2-naphthylketone] | 20 | 30 | 70 | 90 | 100 | 100 | – | – | – | – | – | –
C=CC(=O)c1ccco1 [Example 171, 2-furyl vinylketone] | 0 | 10 | 30 | 0 | 0 | 0 | – | – | – | – | – | –
CC(C)(C)N(CCO)CCC(=O)c1cccs1 [Example 246, 2-(N-t-butyl-2-hydroxyethyl)aminoethyl-2-thiophenylketone] | 0 | 0 | 0 | 10 | 0 | 0 | – | – | – | – | – | –
CC(C)N(CC(=O)c1ccccc1)Cc1ccccc1 [Example 168, 2-(N-isopropylbenzyl)aminomethyl-4-phenylketone] | 0 | 0 | 50 | 0 | 0 | 70 | – | – | – | – | – | –
CC(C)N(CCC(=O)c1ccc(Oc2ccccc2)cc1)Cc1ccccc1 [Example 85, 2-(N-isopropylbenzyl)aminoethyl-4-phenoxyphenylketone] | 10 | 20 | 30 | 50 | 50 | 95 | – | – | – | – | – | –
Cc1cccc2cc(C(=O)CCN3CCCCC3)ccc12 [Example 81, 2-piperidinoethyl-5-methyl-2-naphthylketone] | 0 | 10 | 40 | 0 | 10 | 30 | – | – | – | – | – | –
O=C(CCN(CCO)CCO)c1cnccn1 [Example 102, N,N-bis(2-hydroxyethyl)aminoethyl-2-pyrazylketone] | 0 | 0 | 0 | 0 | 20 | 100 | – | – | – | – | – | –
O=C(CCNC(CO)c1ccccc1)c1ccc(Br)s1 (stereo not drawn) [Example 342, 2-(N-1-phenyl-2-hydroxyethyl)aminoethyl-5-bromo-2-thienylketone] | 0 | 0 | 34 | 0 | 20 | 40 | – | – | – | – | – | –
O=C(CCN(CCO)CCO)c1cccs1 [Example 149, 2-(N-dihydroxyethyl)aminoethylthiophenylketone] | 0 | 0 | 0 | 20 | 20 | 80 | – | – | – | – | – | –
CCc1nccnc1C(=O)CCN(CCO)C(C)C [Example 252, 2-(N-isopropyl-2-hydroxyethyl)aminoethyl-3-ethyl-2-pyrazylketone] | – | – | – | – | – | – | 0 | 0 | 0 | 0 | 0 | 80
CC(C)N(CCO)CCC(=O)c1ccco1 [Example 172, 2-(N-isopropylhydroxyethyl)aminoethyl-2-furylketone] | – | – | – | 0 | – | – | 0 | 0 | 0 | – | – | –
CC(C)(C)N(CCC(=O)c1nccs1)Cc1ccccc1 [Example 256, 2-(N-benzyl-t-butyl)aminoethyl-2-thiazolylketone] | 0 | 0 | 10 | 50 | 90 | 80 | – | – | – | – | – | –
CC(C)(C)N(CCO)CCC(=O)c1ccc(Br)s1 [Example 294, 2-(N-2-hydroxyethyl-t-butyl)aminoethyl-5-bromo-2-thienylketone] | 0 | – | 10 | – | – | 50 | – | – | – | 70 | 40 | –
CCN(CCC(=O)c1cccs1)Cc1ccccc1 [Example 253, 2-(N-benzylethyl)aminoethyl-2-thiophenylketone] | 0 | 10 | 40 | 20 | 0 | 20 | – | – | – | – | – | –
CN(CCO)CCC(=O)c1cccnc1 [Example 259, 2-(N-2-hydroxyethylmethyl)aminoethyl-3-pyridylketone] | 0 | 0 | 0 | 0 | 0 | 20 | – | – | – | – | – | –
O=C(CCN(Cc1ccccc1)Cc1ccccc1)c1ccc(Br)s1 [Example 325, 2-(N-dibenzyl)aminoethyl-5-bromo-2-thienylketone] | 0 | 20 | 40 | 20 | 20 | 50 | – | – | – | – | – | –
CC(C)(C)N(CCO)CCC(=O)c1nccs1 [Example 122, 2-(N-t-butylhydroxyethyl)aminoethyl-2-thiazolylketone] | 0 | 0 | 0 | 0 | 0 | 0 | – | – | – | – | – | –
O=C(CCN(CCO)CCO)c1ccc(I)s1 [Example 320] | 20 | 40 | 50 | 0 | 0 | 70 | – | – | – | – | – | –
CN(CCC(=O)c1cccc2ccccc12)Cc1ccccc1 [Example 74, 2-(N-methylbenzyl)aminoethyl-1-naphthylketone] | 0 | 10 | 30 | 30 | 50 | 70 | – | – | – | – | – | –
COc1ccc(C(=O)CCN(C)Cc2ccccc2)cc1 [Example 76, 2-(N-methylbenzyl)aminoethyl-4-methoxyphenylketone] | 0 | 10 | 20 | 0 | 10 | 30 | – | – | – | – | – | –
Cn1cccc1C(=O)CCN(Cc1ccccc1)C(C)(C)C [Example 165, 2-(N-benzyl-t-butyl)aminoethyl-2-(N-methylpyrrolyl)ketone] | 0 | 0 | 0 | 0 | 0 | 0 | – | – | – | – | – | –
CCC(C)N(CCC(=O)c1sccc1Br)C(C)CC (stereo not drawn) [Example 413] | 20 | 40 | 50 | 48 | 81 | 78 | – | – | – | – | – | –
COC(=O)C(CSSCC(NCCC(=O)c1ccc2c(c1)Cc1ccccc1-2)C(=O)OC)NCCC(=O)c1ccc2c(c1)Cc1ccccc1-2 (stereo not drawn) [Example 404] | 20 | 40 | 50 | 54 | 84 | 94 | – | – | – | – | – | –
CC(C)N(CCO)CCC(=O)c1nccs1 [Example 156, 2-(N-hydroxyethylisopropyl)aminoethyl-2-thiazolylketone] | 0 | 10 | 20 | 20 | 30 | 60 | – | – | – | – | – | –
CN(CCO)CCC(=O)c1cccs1 [Example 126, 2-(N-methylhydroxyethyl)aminoethyl-2-thiophenylketone] | 0 | 0 | 0 | 20 | 20 | 70 | – | – | – | – | – | –
